Consider one molecule from article PMC11306077, “Diterpenoids target SARS-CoV-2 RdRp from the roots of Euphorbia fischeriana Steud” (Frontiers in Plant Science, 2024).

SMILES strings stand for the structures.

This assay concerns the target T1, SARS-CoV-2 RdRp (RNA-dependent RNA polymerase, NSP12) (Severe acute respiratory syndrome coronavirus 2, UniProt P0DTD1).
T1 construct: gene rep
Description: microscale thermophoresis (MST). The format is binding.

Molecule `C[C@H]1C(=O)CC[C@]2(C)[C@@H]1CC[C@@]13CC[C@@H]([C@@H](O)[C@H]12)[C@]1(COC(C)(C)O1)C3` [compound 1, (4R,5S,8S,9S,10R,11S,12S,16S)-ent-11α-hydroxy-16α,17-acetonide-19-noratisan-3-one] displayed a Kd of 31.1 µM.
